{
  "source": "ChEMBL document CHEMBL1201862",
  "about": "“PubChem BioAssay data set” (2004)",
  "assay_in_all_cases": "growth of human tumour cells (NCI), 48 h",
  "key": {"DMS-114": {"system": "DMS-114"}, "EKVX": {"system": "EKVX"}, "HCC 2998": {"system": "HCC 2998"}, "HOP-62": {"system": "HOP-62"}, "HOP-92": {"system": "HOP-92"}, "LOX IMVI": {"system": "LOX IMVI"}, "M19-MEL": {"system": "M19-MEL"}, "Malme-3M": {"system": "Malme-3M"}, "NCI-H226": {"system": "NCI-H226"}, "NCI-H522": {"system": "NCI-H522"}, "NCI/ADR-RES": {"system": "NCI/ADR-RES"}, "SNB-78": {"system": "SNB-78"}, "UACC-257": {"system": "UACC-257"}, "MCF7": {"system": "MCF7"}},
  "note": "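How tested: cells in 96-well plates exposed to compound for 48 hours at five concentrations. The concentration for 50% growth inhibition is given as GI50.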 The source made the active and inactive calls. Rule as the data show it: active = GI50 up to about 1.1 µM and inactive = higher.",
  "data": [
    {"smiles": "CCCCCCCCCCCCCCCCOCC(COP(=O)([O-])OCC[N+](C)(C)C)OCCCCCCCCCCCCCCCC", "note": "(stereo not given)", "values": [
      {"measurement": "GI50", "setting": "DMS-114", "value": "> 100 µM (inactive)"},
      {"measurement": "GI50", "setting": "EKVX", "value": "> 100 µM (inactive)"},
      {"measurement": "GI50", "setting": "HCC 2998", "value": "> 100 µM (inactive)"},
      {"measurement": "GI50", "setting": "HOP-62", "value": "> 100 µM (inactive)"},
      {"measurement": "GI50", "setting": "HOP-92", "value": "> 100 µM (inactive)"},
      {"measurement": "GI50", "setting": "LOX IMVI", "value": "> 100 µM (inactive)"},
      {"measurement": "GI50", "setting": "M19-MEL", "value": "> 100 µM (inactive)"},
      {"measurement": "GI50", "setting": "Malme-3M", "value": "> 100 µM (inactive)"},
      {"measurement": "GI50", "setting": "NCI-H226", "value": "> 100 µM (inactive)"},
      {"measurement": "GI50", "setting": "NCI-H522", "value": "> 100 µM (inactive)"},
      {"measurement": "GI50", "setting": "NCI/ADR-RES", "value": "> 92.9 µM (inactive)"},
      {"measurement": "GI50", "setting": "SNB-78", "value": "> 100 µM (inactive)"},
      {"measurement": "GI50", "setting": "UACC-257", "value": "> 100 µM (inactive)"}
    ]},
    {"smiles": "CN(c1ccccc1)c1c(-c2ccccc2)c(=O)oc2c1ccc1occc12", "values": [
      {"measurement": "GI50", "setting": "DMS-114", "value": "> 100 µM (inactive)"},
      {"measurement": "GI50", "setting": "EKVX", "value": "> 100 µM (inactive)"},
      {"measurement": "GI50", "setting": "HCC 2998", "value": "> 100 µM (inactive)"},
      {"measurement": "GI50", "setting": "HOP-62", "value": "> 100 µM (inactive)"},
      {"measurement": "GI50", "setting": "LOX IMVI", "value": "> 100 µM (inactive)"},
      {"measurement": "GI50", "setting": "M19-MEL", "value": "> 100 µM (inactive)"},
      {"measurement": "GI50", "setting": "MCF7", "value": "> 100 µM (inactive)"},
      {"measurement": "GI50", "setting": "Malme-3M", "value": "> 100 µM (inactive)"},
      {"measurement": "GI50", "setting": "NCI-H226", "value": "0.348 µM (active)"},
      {"measurement": "GI50", "setting": "NCI-H522", "value": "> 100 µM (inactive)"},
      {"measurement": "GI50", "setting": "NCI/ADR-RES", "value": "> 100 µM (inactive)"},
      {"measurement": "GI50", "setting": "SNB-78", "value": "> 100 µM (inactive)"},
      {"measurement": "GI50", "setting": "UACC-257", "value": "> 100 µM (inactive)"}
    ]},
    {"smiles": "COc1cc2c(cc1Oc1c(Oc3c(O)c(OC)cc4c3C(CC(C)C)N(C)CC4)c(OC)cc3c1C(CC(C)C)N(C)CC3)C(CC(C)C)N(C)CC2", "note": "(stereo not given)", "values": [
      {"measurement": "GI50", "setting": "DMS-114", "value": "0.838 µM (active)"},
      {"measurement": "GI50", "setting": "EKVX", "value": "0.528 µM (active)"},
      {"measurement": "GI50", "setting": "HCC 2998", "value": "0.92 µM (active)"},
      {"measurement": "GI50", "setting": "HOP-62", "value": "0.533 µM (active)"},
      {"measurement": "GI50", "setting": "HOP-92", "value": "0.465 µM (active)"},
      {"measurement": "GI50", "setting": "LOX IMVI", "value": "0.931 µM (active)"},
      {"measurement": "GI50", "setting": "M19-MEL", "value": "0.515 µM (active)"},
      {"measurement": "GI50", "setting": "MCF7", "value": "0.632 µM (active)"},
      {"measurement": "GI50", "setting": "Malme-3M", "value": "1.11 µM (active)"},
      {"measurement": "GI50", "setting": "NCI-H226", "value": "0.422 µM (active)"},
      {"measurement": "GI50", "setting": "NCI-H522", "value": "0.458 µM (active)"},
      {"measurement": "GI50", "setting": "NCI/ADR-RES", "value": "2.38 µM (inactive)"},
      {"measurement": "GI50", "setting": "SNB-78", "value": "1.13 µM (inactive)"},
      {"measurement": "GI50", "setting": "UACC-257", "value": "1.45 µM (inactive)"}
    ]},
    {"smiles": "CCN(CC)c1c(C)c(C(=O)OC)nn1-c1ccccc1", "values": [
      {"measurement": "GI50", "setting": "DMS-114", "value": "38.7 µM (inactive)"},
      {"measurement": "GI50", "setting": "EKVX", "value": "> 81.1 µM (inactive)"},
      {"measurement": "GI50", "setting": "HCC 2998", "value": "> 43.7 µM (inactive)"},
      {"measurement": "GI50", "setting": "HOP-62", "value": "> 100 µM (inactive)"},
      {"measurement": "GI50", "setting": "HOP-92", "value": "71 µM (inactive)"},
      {"measurement": "GI50", "setting": "LOX IMVI", "value": "86.5 µM (inactive)"},
      {"measurement": "GI50", "setting": "M19-MEL", "value": "> 66.2 µM (inactive)"},
      {"measurement": "GI50", "setting": "MCF7", "value": "80.4 µM (inactive)"},
      {"measurement": "GI50", "setting": "Malme-3M", "value": "> 96.6 µM (inactive)"},
      {"measurement": "GI50", "setting": "NCI-H226", "value": "> 77.1 µM (inactive)"},
      {"measurement": "GI50", "setting": "NCI-H522", "value": "63.8 µM (inactive)"},
      {"measurement": "GI50", "setting": "NCI/ADR-RES", "value": "36.4 µM (inactive)"},
      {"measurement": "GI50", "setting": "SNB-78", "value": "> 100 µM (inactive)"},
      {"measurement": "GI50", "setting": "UACC-257", "value": "31.2 µM (inactive)"}
    ]},
    {"smiles": "O=C1C(=O)c2cc([N+](=O)[O-])ccc2-c2ccc([N+](=O)[O-])cc21", "values": [
      {"measurement": "GI50", "setting": "DMS-114", "value": "0.375 µM (active)"},
      {"measurement": "GI50", "setting": "EKVX", "value": "2.04 µM (inactive)"},
      {"measurement": "GI50", "setting": "HCC 2998", "value": "2.25 µM (inactive)"},
      {"measurement": "GI50", "setting": "HOP-62", "value": "2.89 µM (inactive)"},
      {"measurement": "GI50", "setting": "HOP-92", "value": "0.21 µM (active)"},
      {"measurement": "GI50", "setting": "LOX IMVI", "value": "0.346 µM (active)"},
      {"measurement": "GI50", "setting": "M19-MEL", "value": "0.285 µM (active)"},
      {"measurement": "GI50", "setting": "MCF7", "value": "0.933 µM (active)"},
      {"measurement": "GI50", "setting": "Malme-3M", "value": "1.97 µM (inactive)"},
      {"measurement": "GI50", "setting": "NCI-H226", "value": "1.51 µM (inactive)"},
      {"measurement": "GI50", "setting": "NCI-H522", "value": "0.863 µM (active)"},
      {"measurement": "GI50", "setting": "NCI/ADR-RES", "value": "0.344 µM (active)"},
      {"measurement": "GI50", "setting": "SNB-78", "value": "0.698 µM (active)"},
      {"measurement": "GI50", "setting": "UACC-257", "value": "1.2 µM (inactive)"}
    ]},
    {"smiles": "Nc1c(C(=O)Nc2ccc(C3=NCCN3)cc2)cccc1C(=O)Nc1ccc(C2=NCCN2)cc1", "values": [
      {"measurement": "GI50", "setting": "DMS-114", "value": "> 100 µM (inactive)"},
      {"measurement": "GI50", "setting": "HCC 2998", "value": "> 71.6 µM (inactive)"},
      {"measurement": "GI50", "setting": "HOP-92", "value": "> 100 µM (inactive)"},
      {"measurement": "GI50", "setting": "LOX IMVI", "value": "> 100 µM (inactive)"},
      {"measurement": "GI50", "setting": "M19-MEL", "value": "> 100 µM (inactive)"},
      {"measurement": "GI50", "setting": "MCF7", "value": "> 100 µM (inactive)"},
      {"measurement": "GI50", "setting": "Malme-3M", "value": "> 100 µM (inactive)"},
      {"measurement": "GI50", "setting": "NCI-H226", "value": "> 100 µM (inactive)"},
      {"measurement": "GI50", "setting": "NCI-H522", "value": "> 65.2 µM (inactive)"},
      {"measurement": "GI50", "setting": "NCI/ADR-RES", "value": "> 100 µM (inactive)"},
      {"measurement": "GI50", "setting": "SNB-78", "value": "> 83.8 µM (inactive)"},
      {"measurement": "GI50", "setting": "UACC-257", "value": "> 100 µM (inactive)"}
    ]}
  ]
}
